For nine compounds, TGI and GI50 results are on record in PubChem BioAssay (NCI).

Molecules are shown by their SMILES. Where “and” joins values, the source holds several entries; their conditions need not be identical. Identical values can stand only once.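 All cell lines were grown in 96-well plates and treated with compound for 48 hours. Here, GI50 denotes the concentration required for 50% inhibition of growth. At the TGI there is no net growth.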 A value given as a limit tells only on which side of the number the result lay.

Some test systems named below: SF-539 CNS; MCF7 breast; HL-60(TB) leukemia; SK-MEL-28 melanoma; HOP-62 NSCLC; OVCAR-3 ovarian; KM12 colon; SK-MEL-2 melanoma; SN12C renal; T-47D breast.
Assay in all cases: inhibition of tumour cell growth, NCI panel, 48 h

For the compound `Nc1nc(F)nc2c1ncn2C1OC(COP(=O)(O)O)C(O)C1O` (stereo not given), the TGI in the test on SF-539 CNS was 859 µM; in the test with MCF7 breast it was 717 µM; with HL-60(TB) leukemia, 71.9 µM; with SK-MEL-28 melanoma, 755 µM; with HOP-62 NSCLC, 122 µM; in the test with OVCAR-3 ovarian it was 546 µM. The TGI with KM12 colon came out at 900 µM; in the test on SK-MEL-2 melanoma, 151 µM; with SN12C renal it was 145 µM; in the test on T-47D breast it was 489 µM.
As for `c1cncc(-c2cc(-c3cc(-c4cccnc4)n[nH]3)[nH]n2)c1`, the TGI in the test on SF-539 CNS, in the test with MCF7 breast, in the test with HL-60(TB) leukemia, with SK-MEL-28 melanoma, in the test with HOP-62 NSCLC and in the test on OVCAR-3 ovarian was greater than 100 µM throughout. Also, the TGI with KM12 colon, in the test on SK-MEL-2 melanoma, in the test with SN12C renal and in the test on T-47D breast was greater than 100 µM in each case.
In the case of `CCSc1nc(=S)[nH]c2[nH]ncc12`, the GI50 in the test on SF-539 CNS was 45.1 µM; in the test with MCF7 breast it was 66.8 µM; in the test with HL-60(TB) leukemia it was greater than 100 µM; in the test on SK-MEL-28 melanoma, greater than 100 µM; with HOP-62 NSCLC it was greater than 100 µM; in the test with OVCAR-3 ovarian it was 64.6 µM. Also, the GI50 in the test with KM12 colon was 86.5 µM; in the test on SK-MEL-2 melanoma, greater than 100 µM; in the test with SN12C renal it was greater than 100 µM; in the test with T-47D breast, 86.1 µM. The TGI in the test with SF-539 CNS, in the test with MCF7 breast, with HL-60(TB) leukemia, in the test on SK-MEL-28 melanoma, in the test on HOP-62 NSCLC and with OVCAR-3 ovarian was greater than 100 µM throughout. Also, the TGI in the test with KM12 colon, with SK-MEL-2 melanoma, with SN12C renal and with T-47D breast was greater than 100 µM each time.
In the case of `COc1ccc(C(=O)c2ccc(OC)cc2OC)cc1`, the GI50 with SF-539 CNS is 2.81 µM; with MCF7 breast it was 2.75 µM; with HL-60(TB) leukemia, 2.94 µM; with SK-MEL-28 melanoma, 4.05 µM; in the test with HOP-62 NSCLC, 2.6 µM; in the test on OVCAR-3 ovarian, 2.2 µM. In addition, the GI50 in the test with KM12 colon was 2.22 µM; with SK-MEL-2 melanoma, 2.89 µM; in the test on SN12C renal, 5.58 µM; in the test with T-47D breast, 3.09 µM. Moreover, the TGI with SF-539 CNS is 22.4 µM; in the test with MCF7 breast, greater than 100 µM; with HL-60(TB) leukemia, greater than 100 µM; with SK-MEL-28 melanoma, greater than 100 µM; with HOP-62 NSCLC, greater than 100 µM; in the test on OVCAR-3 ovarian, 5.95 µM. In addition, the TGI is 24.7 µM in the test on KM12 colon, 12.2 µM in the test with SK-MEL-2 melanoma, greater than 100 µM in the test on SN12C renal and greater than 100 µM in the test on T-47D breast.
With `CC1=Cc2cc3[n-]c(cc4nc(cc5[n-]c(cc1n2)c(C)c5CCC(=O)O)C(CCC(=O)O)=C4C)cc3C.[Cu+2]`, the GI50 in the test on SF-539 CNS was < 1 µM and 3.52 µM; in the test with MCF7 breast it was 63.7 µM; in the test on HL-60(TB) leukemia, > 1 µM and 22.2 µM; in the test on SK-MEL-28 melanoma, > 1 µM and 4.4 µM; in the test on HOP-62 NSCLC it was > 1 µM and 20.8 µM; in the test on OVCAR-3 ovarian, > 1 µM and 26.5 µM. For the same compound, the GI50 was greater than 92.2 µM in the test with KM12 colon; > 1 µM and 10.9 µM with SK-MEL-2 melanoma; > 1 µM and 57.7 µM with SN12C renal; 47.6 µM in the test with T-47D breast. Moreover, the TGI with SF-539 CNS was > 1 µM and 11.6 µM; in the test with MCF7 breast it was greater than 100 µM; in the test on HL-60(TB) leukemia it was > 1 µM and 51.2 µM; in the test on SK-MEL-28 melanoma it was > 1 µM and 12.9 µM; with HOP-62 NSCLC it was > 1 µM and 59.1 µM; in the test with OVCAR-3 ovarian it was > 1 µM and 92.3 µM. Besides, the TGI is greater than 100 µM in the test on KM12 colon, greater than 81.7 µM in the test with SK-MEL-2 melanoma, greater than 100 µM in the test with SN12C renal and greater than 100 µM in the test with T-47D breast.
For the compound `Cc1cc(Nc2nc(N3CCOCC3)nc3ccccc23)n[nH]1`, the GI50 with SF-539 CNS is 4.27 µM; in the test on MCF7 breast, 9.7 µM; with HL-60(TB) leukemia, 5.5 µM; in the test on SK-MEL-28 melanoma, 20.4 µM; in the test with HOP-62 NSCLC, 6.22 µM; with OVCAR-3 ovarian, 11.5 µM. In addition, the GI50 with KM12 colon is 0.4 µM; in the test with SK-MEL-2 melanoma it was 5.2 µM; in the test with SN12C renal it was 4.23 µM; with T-47D breast, 9.63 µM. Moreover, the TGI is 16.6 µM in the test on SF-539 CNS; greater than 100 µM in the test on MCF7 breast; 50.1 µM in the test with HL-60(TB) leukemia; greater than 100 µM with SK-MEL-28 melanoma; greater than 100 µM in the test on HOP-62 NSCLC; greater than 100 µM in the test on OVCAR-3 ovarian. Besides, the TGI in the test on KM12 colon, in the test on SK-MEL-2 melanoma, in the test with SN12C renal and in the test on T-47D breast was greater than 100 µM each time.
As for `Cc1cc(-c2cc(C)c(O)c(C(C)(C)C)c2)cc(C(C)(C)C)c1O`, the TGI with SF-539 CNS is 28.2 µM and 35.4 µM; with MCF7 breast, 16.7 µM and 19.4 µM; in the test with HL-60(TB) leukemia it was 26.7 µM and 32.7 µM; with SK-MEL-28 melanoma, 24.5 µM and 34.2 µM; in the test on HOP-62 NSCLC it was 34.5 µM and 31 µM; in the test with OVCAR-3 ovarian, 28.4 µM and 27 µM. The TGI is 20.8 µM and 21.3 µM in the test on KM12 colon; 19.4 µM and 25.8 µM with SK-MEL-2 melanoma; 24.8 µM and 26.2 µM in the test with SN12C renal; 20.1 µM and 20.7 µM with T-47D breast.
With `COc1cc(C(=O)O)ccc1NC(=O)[C@@H]1N[C@@H](CC(C)(C)C)[C@](C#N)(c2ccc(Cl)cc2F)[C@H]1c1cccc(Cl)c1F`, the GI50 with SF-539 CNS was 3.63 µM; in the test with MCF7 breast, 0.0328 µM; in the test on HL-60(TB) leukemia, 2.28 µM; in the test on SK-MEL-28 melanoma, 2.56 µM; in the test on HOP-62 NSCLC, 6.04 µM; with OVCAR-3 ovarian, 1.77 µM. The GI50 with KM12 colon was 2.58 µM; in the test with SK-MEL-2 melanoma, 2.96 µM; with SN12C renal, 4.27 µM; in the test with T-47D breast, 5.23 µM. The TGI with SF-539 CNS turned out to be 11.5 µM; with MCF7 breast, 4.12 µM; with HL-60(TB) leukemia, 6.71 µM; in the test with SK-MEL-28 melanoma, 7.59 µM; in the test with HOP-62 NSCLC, 17.4 µM; with OVCAR-3 ovarian it was 4.3 µM. In addition, the TGI with KM12 colon is greater than 24.2 µM; in the test with SK-MEL-2 melanoma, 10 µM; with SN12C renal, greater than 41.9 µM; in the test with T-47D breast, 43.7 µM.
Consider `Cc1c(N(C(=O)c2cc(-c3cc(Cl)ccc3C(=O)N3Cc4ccccc4C[C@H]3CN3CCOCC3)n(C)c2C)c2ccc(O)cc2)cc(C#N)n1C`, for which the GI50 is 20.6 µM with SF-539 CNS; 23.5 µM in the test with MCF7 breast; 2.38 µM with HL-60(TB) leukemia; 31.3 µM in the test on SK-MEL-28 melanoma; 25.8 µM with HOP-62 NSCLC; 11 µM in the test with OVCAR-3 ovarian. The GI50 in the test on KM12 colon is 51 µM; in the test with SK-MEL-2 melanoma, 11.8 µM; with SN12C renal it was 19.5 µM; with T-47D breast, 7.09 µM. Moreover, the TGI is greater than 100 µM with SF-539 CNS; greater than 100 µM in the test with MCF7 breast; 29.1 µM with HL-60(TB) leukemia; greater than 100 µM in the test with SK-MEL-28 melanoma; greater than 100 µM in the test on HOP-62 NSCLC; greater than 100 µM with OVCAR-3 ovarian. Moreover, the TGI in the test on KM12 colon is greater than 100 µM; in the test on SK-MEL-2 melanoma, 30.7 µM; in the test on SN12C renal, greater than 100 µM; in the test on T-47D breast, greater than 100 µM.
